The values that follow come from ChEMBL document CHEMBL5131514, “Structure and Mechanism-Guided Design of Dual Serine/Metallo-Carbapenemase Inhibitors” (J Med Chem, 2022).

A word on the Ki: it is the dissociation constant of the complex between target and ligand, obtained from inhibition or displacement. A word on the inhibition: it is the change of the read-out against control, counted positive when it falls. What is called IC50 is the concentration needed to halve the response being measured.

The nature of assay [1]: Inhibition of bacterial beta-lactamase KPC-2 expressed in Escherichia coli BL21 (DE3) assessed as inhibition constant using nitrocefin as substrate by microplate reader analysis. On the set-up: species or system Bacteria.
Assay [2] is described as follows: Inhibition of bacterial beta-lactamase NDM-1 (42 to 270 residues) expressed in Escherichia coli BL21 (DE3) assessed as inhibition constant using nitrocefin as substrate by microplate reader analysis. On the set-up: species or system Bacteria.
The test system of assay [3] is Bacteria. The assay can be described thus: Inhibition of recombinant bacterial beta-lactamase VIM-2 (26 to 266 residues) expressed in Escherichia coli Lemo21(DE3) at 200 uM using CENTA substrate by colorimetric assay relative to control.
Assay [4] concerns Bacteria. The assay is described as follows: Inhibition of recombinant bacterial beta-lactamase […] (28 to 270 residues) at 200 uM using CENTA substrate by colorimetric assay relative to control.
For assay [5], the system named is Bacteria. The assay is described as follows: Inhibition of bacterial beta-lactamase AmpC at 200 uM using CENTA substrate by colorimetric assay relative to control.
For assay [6], the system named is Bacteria. The assay is described as follows: Inhibition of bacterial beta-lactamase KPC-2 at 200 uM using CENTA substrate by colorimetric assay relative to control.
Assay [7] concerns Bacteria. The assay can be described thus: Inhibition of bacterial beta-lactamase CTX-M-15 at 200 uM CENTA substrate by colorimetric assay relative to control.
The nature of assay [8]: Inhibition of recombinant bacterial beta-lactamase NDM-1 MBL (1 to 270 residues) expressed in Escherichia coli Transetta (DE3) using FC-1 as substrate preincubated for 10 mins followed by substrate addition measured every 60 secs by fluorescence based assay. On the set-up: species or system Bacteria.
The nature of assay [9]: Inhibition of recombinant bacterial beta-lactamase VIM-2 MBL (27 to 266 residues) expressed in Escherichia coli Transetta (DE3) using FC-1 as substrate preincubated for 10 mins followed by substrate addition measured every 60 secs by fluorescence based assay. On the set-up: species or system Bacteria.
A short description of assay [10]: Inhibition of recombinant bacterial beta-lactamase TEM-1 SBL (24 to 286 residues) expressed in Escherichia coli Transetta (DE3) using FC-1 as substrate preincubated for 4 hrs followed by substrate addition measured every 60 secs by fluorescence based assay. On the set-up: species or system Bacteria.
The nature of assay [11]: Binding affinity to recombinant full-length bacterial beta-lactamase KPC-2 assessed as inhibition constant using nitrocefin as substrate by spectrophotometric assay. On the set-up: species or system Bacteria.
The nature of assay [12]: Binding affinity to Pseudomonas aeruginosa beta-lactamase IMP-1 expressed in Escherichia coli Lemo21(DE3) assessed as inhibition constant using nitrocefin as substrate by spectrophotometric assay.
A short description of assay [13]: Binding affinity to bacterial beta-lactamase VIM-1 expressed in Escherichia coli BL21 (DE3) assessed as inhibition constant using nitrocefin as substrate by spectrophotometric assay. On the set-up: species or system Bacteria.
Assay [14] in a line: Inhibition of bacterial beta-lactamase CTX-M-15 assessed as inhibition constant using cephalothin as substrate by spectrophotometric assay. On the set-up: species or system Bacteria.
Assay [15] in a line: Inhibition of recombinant bacterial beta-lactamase […] (28 to 270 residues) assessed as inhibition constant using imipenem as substrate by spectrophotometric assay. On the set-up: species or system Bacteria.
Assay [16] can be described thus: Inhibition of bacterial beta-lactamase CTX-M-15 using nitrocefin as substrate incubated for 10 mins and measured every 10 seconds for 10 mins. On the set-up: species or system Bacteria.
The nature of assay [17]: Inhibition of bacterial beta-lactamase VIM-1 using nitrocefin as substrate incubated for 10 mins followed by substrate addition measured every 10 seconds for 10 mins. On the set-up: species or system Bacteria.
The nature of assay [18]: Inhibition of bacterial beta-lactamase SHV-12 using nitrocefin as substrate incubated for 10 mins and measured every 10 seconds for 10 mins. On the set-up: species or system Bacteria.
The nature of assay [19]: Inhibition of bacterial beta-lactamase P99 using nitrocefin as substrate incubated for 10 mins and measured every 10 seconds for 10 mins. On the set-up: species or system Bacteria.
The nature of assay [20]: Inhibition of bacterial beta-lactamase IMP-1 using imipenem as substrate incubated for 10 mins followed by substrate addition measured every 30 seconds for 1 hr. On the set-up: species or system Bacteria.
A short description of assay [21]: Inhibition of bacterial beta-lactamase KPC-2 using nitrocefin as substrate incubated for 10 mins and measured every 10 seconds for 10 mins. On the set-up: species or system Bacteria.
The nature of assay [22]: Inhibition of bacterial beta-lactamase TEM-10 using nitrocefin as substrate incubated for 10 mins and measured every 10 seconds for 10 mins. On the set-up: species or system Bacteria.
The nature of assay [23]: Inhibition of bacterial beta-lactamase OXA-48 using nitrocefin as substrate incubated for 10 mins and measured every 10 seconds for 10 mins. On the set-up: species or system Bacteria.

`O=C(Nc1nnn[nH]1)C(c1ccccc1)[S+]([O-])c1ccccc1` (centres undefined): the figures for the Ki in assay [1] and in assay [2] were 1570 µM and 204 µM, respectively.

As for `CCn1c(S)nnc1-c1nn(C)c(C)c1Cl`, the inhibition in the assay on Bacteria [3] is 86%; with Bacteria [4] it was 70%; in the assay on Bacteria [5] it was 37%; in the assay on Bacteria [6], less than 20%; in the assay on Bacteria [7] it was less than 20%.

Turning to `Sc1nnc(-c2ccco2)n1C1CC1`, the inhibition in the assay with Bacteria [3] is 81%; in the assay on Bacteria [4], 62%; with Bacteria [5], less than 20%; with Bacteria [6], 46%; with Bacteria [7], 49%.

As to `O=C(Nc1nnn[nH]1)c1cc(-c2ccccc2)nn1-c1ccccc1`, the Ki worked out at 44 µM in [1] and 62 µM in [2].

Turning to `O=C(Nc1nnn[nH]1)c1cc(-c2ccccc2)n(-c2ccccc2)n1`, the figures for the Ki in assay [1] and in [2] were 239 µM and 56 µM, respectively.

Take `O=P(O)(O)C(c1ccccc1-c1ccccn1)P(=O)(O)O`: the figures for the IC50 in assay [8], in assay [9] and in assay [10] were 32 µM, 11.1 µM and 68.4 µM, respectively.

For `S=c1[nH]ncn1NCc1ccc2c(c1)OCO2`, the Ki worked out at 138 µM in assay [11], 125 µM in [12] and 120 µM in [13].

As to `CCN(CC)c1ccc(CNn2cn[nH]c2=S)cc1`, the Ki in [11] turned out to be 263 µM; in assay [12], 173 µM; in assay [13], 224 µM.

As for `O=C(Nc1nnn[nH]1)C(Nc1ccccc1)c1ccccc1` (centres undefined), the figures for the Ki in assay [1] and in [2] were 479 µM and 477 µM, respectively.

As to `O=P(O)(O)C(c1ccc2ccccc2c1-c1ccccn1)P(=O)(O)O`, the IC50 in assay [8] amounted to 17.1 µM; in [9] it was 3.78 µM; in assay [10], 1.73 µM.

As for `Sc1nnc(-c2cccnc2)n1CC1CCCO1` (centres undefined), the inhibition in the assay on Bacteria [3] is 87%; with Bacteria [4] it was 54%; in the assay on Bacteria [5] it was less than 20%; in the assay with Bacteria [6], less than 20%; with Bacteria [7], 33%.

Turning to `S=C(N/N=C/c1ccccc1)N1CCOCC1`, the inhibition is 33% in the assay on Bacteria [3]; 71% with Bacteria [4]; 50% in the assay with Bacteria [5]; 41% in the assay on Bacteria [6]; 32% in the assay on Bacteria [7]. Moreover, the Ki came out at 50 µM in assay [14] and 32 µM in assay [15].

For `Sc1nncn1/N=C/c1ccc(Br)cc1`, the values for the Ki in [11], in [12] and in assay [13] were 158 µM, 285 µM and 58 µM, respectively.

Take `S=c1[nH]ncn1/N=C/c1c[nH]c2ccccc12`: the Ki is 139 µM in assay [11], 104 µM in assay [12] and 95 µM in assay [13].

In the case of `O=P(O)(O)C(c1cc2ccccc2n1-c1ncccn1)P(=O)(O)O`, the IC50 in [8] turned out to be 15 µM; in assay [9] it was 5.58 µM; in assay [10] it was 11.5 µM.

As to `O=C(NC(=S)NNC(=O)c1cccs1)c1ccc(Br)o1`, the inhibition in the assay on Bacteria [3] was found to be 45%; in the assay with Bacteria [4], 79%; with Bacteria [5], 32%; in the assay with Bacteria [6], 66%; with Bacteria [7], 55%.

Consider `O=C(O)c1c(F)ccc2c1OB(O)[C@@H]1C[C@H]21` [XERUBORBACTAM], for which the IC50 is 1.2 nM in assay [16]; 14 nM in [17]; 1.9 nM in assay [18]; 22 nM in assay [19]; 610 nM in assay [20]; 2.9 nM in assay [21]. The results for the IC50 in assay [22] and in assay [23] were 2.2 nM and 1.1 nM, respectively.
